For four compounds, IC50 results are on record in ChEMBL document CHEMBL1134087, “Inhibitors of the bacterial cell wall biosynthesis enzyme MurC” (Bioorg Med Chem Lett, 2001).

Some results are limits rather than exact numbers.

Assay [1] can be described thus: Tested for inhibitory activity against UDP-N-acetylmuramoyl-L-alanine synthetase from Escherichia coli by malachite green assay.
Assay [2] can be described thus: Tested for inhibitory activity against UDP-N-acetylmuramoyl-L-alanine synthetase from Escherichia coli by malachite green assay; Inactive.

As usually defined, the IC50 is the concentration at which inhibition is half-maximal. A higher IC50 goes with a need for much substance.

Regarding `CC(=O)N[C@H]1C(OP(=O)(O)OP(=O)(O)OC[C@H]2O[C@@H](n3ccc(=O)[nH]c3=O)[C@H](O)[C@@H]2O)O[C@H](CO)[C@@H](O)[C@@H]1OCP(=O)(O)CC(C)C(=O)O` (some centres undefined), in assay [1], inhibition was half-maximal at 0.049 µM (IC50).

In turn, `CC(CP(=O)(O)COCCCOP(=O)(O)OP(=O)(O)OC[C@H]1O[C@@H](n2ccc(=O)[nH]c2=O)[C@H](O)[C@@H]1O)C(=O)O` (some centres undefined) yielded an IC50 in assay [1] of 60 µM. Same read-out and setting: next, `CC(=O)N[C@H]1[C@@H](OP(=O)(O)O)O[C@H](CO)[C@@H](O)[C@@H]1OCP(=O)(O)CC(C)C(=O)O` (some centres undefined): > 100 µM. With `CC(CP(=O)(O)COCCCOP(=O)(O)O)C(=O)O` (centres undefined), in assay [2], the IC50 entry is reported as “Not Active”.
